Legend:
PC3 ITS+ cells = experiment: Plate colony formation assay, serum-free (ITS+)-grown PC3; type: cell-based, human; conditions: 14 days
Excerpt: (§1) Prostate cancer is one of the most common cancers in European and American males and has a high mortality rate (Landis et al, 1998; Rosenthal, 1998). Early disease is managed conservatively in Europe although in selected patients surgery is curative. In advanced disease, androgen ablation can produce symptomatic improvement, but the tumour often re-emerges in an androgen- independent and incurable form. One proposed treatment for androgen-independent prostate carcinoma is differentiation ther- apy, in which agents such as all-trans-retinoic acid (ATRA), 9-cis- retinoic acid and 1, 25-dihydroxyvitamin D3 (D3 ) are used to induce growth arrest, differentiation and sometimes apoptosis of the tumour cells (Liang et al, 1999; de Vos et al, 1997; Skowronski et al, 1994; Hedlund et al, 1997). ATRA and synthetic analogues exert their biological effects by binding to two families of retinoid receptors, the RARs (RAR, RAR and RAR) and the RXRs (RXR, RXR and RXR). These are ligand-dependent transcription factors of the steroid/thyroid hormone nuclear receptor superfamily (Chambon 1994; Boehm et al, 1995). Activated RARs bind to retinoic acid-responsive elements (RAREs) in the promoters of genes and thus regulate gene expression. They also antagonize the activity of the tran- scription factor AP1 and thereby down-regulate the expression of some AP1-activated genes (Nagpal et al, 1995). One approach to unravelling the contributions of RAR sub-types to these actions has been the development of synthetic retinoids with selective activities at individual RARs and RXRs. For example, the diaryl- acetylenic retinoids allow separation of transactivation and AP1 antagonism functions at RAR (Nagpal et al, 1995). Recently, compounds that are selective for particular RAR sub-types have been synthesized: these include both agonists and antagonists (Chandraratna, 1995; Teng et al, 1999; Johnson et al, 1999). The functional selectivity of these compounds may open the way to achieving differentiation or apoptosis of tumour cells with minimal systemic side effects (Chandraratna, 1995). […]

[1] = tested on: FBS-grown LNCaP, DU145 and PC3 cells; experiment: Plate colony formation assay, stated over the three FBS-grown lines; type: cell-based, human; conditions: 100 nM
Excerpt: as §1, with “1995).” for “1995). One approach to unravelling the contributions of RAR sub-types to these actions has been the development of synthetic retinoids with selective activities at individual RARs and RXRs. For example, the diaryl- acetylenic retinoids allow separation of transactivation and AP1 antagonism functions at RAR (Nagpal et al, 1995). Recently, compounds that are selective for particular RAR sub-types have been synthesized: these include both agonists and antagonists (Chandraratna, 1995; Teng et al, 1999; Johnson et al, 1999). The functional selectivity of these compounds may open the way to achieving differentiation or apoptosis of tumour cells with minimal systemic side effects (Chandraratna, 1995).”

DU145 ITS+ cells = experiment: Plate colony formation assay, serum-free (ITS+)-grown DU145; type: cell-based, human; conditions: 14 days
Excerpt: as §1

HL60 cells [2] = experiment: Clonal growth of single serum-free grown HL60 cells in microtitre wells; type: cell-based, human
Excerpt: (§2) Prostate cancer is one of the most common cancers in European and American males and has a high mortality rate (Landis et al, 1998; Rosenthal, 1998). Early disease is managed conservatively in Europe although in selected patients surgery is curative. In advanced disease, androgen ablation can produce symptomatic improvement, but the tumour often re-emerges in an androgen- independent and incurable form. One proposed treatment for androgen-independent prostate carcinoma is differentiation ther- apy, in which agents such as all-trans-retinoic acid (ATRA), 9-cis- retinoic acid and 1, 25-dihydroxyvitamin D3 (D3 ) are used to induce growth arrest, differentiation and sometimes apoptosis of the tumour cells (Liang et al, 1999; de Vos et al, 1997; Skowronski et al, 1994; Hedlund et al, 1997). ATRA and synthetic analogues exert their biological effects by binding to two families of retinoid receptors, […]. These are ligand-dependent transcription factors of the steroid/thyroid hormone nuclear receptor superfamily (Chambon 1994; Boehm et al, 1995). Activated RARs bind to retinoic acid-responsive elements (RAREs) in the promoters of genes and thus regulate gene expression. They also antagonize the activity of the tran- scription factor AP1 and thereby down-regulate the expression of some AP1-activated genes (Nagpal et al, 1995). One approach to unravelling the contributions of RAR sub-types to these actions has been the development of synthetic retinoids with selective activities at individual RARs and RXRs. For example, the diaryl- acetylenic retinoids allow separation of transactivation and AP1 antagonism functions at RAR (Nagpal et al, 1995). Recently, compounds that are selective for particular RAR sub-types have been synthesized: these include both agonists and antagonists (Chandraratna, 1995; Teng et al, 1999; Johnson et al, 1999). The functional selectivity of these compounds may open the way to achieving differentiation or apoptosis of tumour cells with minimal systemic side effects (Chandraratna, 1995). Cell lines that are commonly used in the evaluation of investiga- tional agents for prostate cancer include LNCaP, DU-145 and PC- 3. […] These lines are relatively insensitive to growth inhibition and induction of apoptosis by ATRA and by synthetic agonists. […] Fenretinide (4HPR) induces apoptosis of LNCaP and of PC-3 cells at 1-5 M and 25 µM, respectively (Pienta et al, 1993; Heish and Wu, 1997). Pfahl and colleagues examined the growth inhibitory effects of a panel of receptor-selective retinoids against DU145 and PC-3 cells and achieved complete growth inhibition and induction of apoptosis between 1 M and 10 M (Lu et al, 1999). […] Antagonists of retinoic acid receptors (RARs) are potent growth inhibitors of prostate carcinoma cells LA Hammond1 , CH Van Krinks2 , J Durham2 , SE Tomkins2 , RD Burnett3 , EL Jones1 , RAS Chandraratna3 and G Brown2 Divisions of 1 Cancer Studies and of 2 Immunity and Infection, University of Birmingham Medical School, Edgbaston, Birmingham B15 2TT, UK and 3 Retinoid Research, Allergan Inc., Irvine, California, USA Summary Novel synthetic antagonists of retinoic acid receptors (RARs) have been developed. To avoid interference by serum retinoids when testing these compounds, we established serum-free grown sub-lines (>3 years) of the prostate carcinoma lines LNCaP, PC3 and DU145. […] A component(s) of serum and of LNCaP-conditioned medium diminishes the activity of antagonists: this factor is not the most likely candidates IGF-1 and EGF. In vitro studies of RAR antagonists together with data from RAR-null mice lead to the hypothesis that RAR-regulated gene transcription is necessary for the survival and maintenance of prostate epithelium. […]

[3] = tested on: LNCaP, PC3 and DU145 cells; experiment: Plate colony formation assay, stated over the three serum-free grown lines; type: cell-based, human
Excerpt: as §2

HL60 cells [4] = experiment: ATRA-induced differentiation of HL60 cells to neutrophils (nitroblue tetrazolium reduction); type: cell-based, human; conditions: antagonist at 100 nM added with 100 nM ATRA
Excerpt: as §1, with “1995).” for “1995). One approach to unravelling the contributions of RAR sub-types to these actions has been the development of synthetic retinoids with selective activities at individual RARs and RXRs. For example, the diaryl- acetylenic retinoids allow separation of transactivation and AP1 antagonism functions at RAR (Nagpal et al, 1995). Recently, compounds that are selective for particular RAR sub-types have been synthesized: these include both agonists and antagonists (Chandraratna, 1995; Teng et al, 1999; Johnson et al, 1999). The functional selectivity of these compounds may open the way to achieving differentiation or apoptosis of tumour cells with minimal systemic side effects (Chandraratna, 1995).”

RARs = experiment: Binding to RARs (stated over all three subtypes); conditions: range over RARα, RARβ and RARγ
Excerpt: as §1, with “1995).” for “1995). One approach to unravelling the contributions of RAR sub-types to these actions has been the development of synthetic retinoids with selective activities at individual RARs and RXRs. For example, the diaryl- acetylenic retinoids allow separation of transactivation and AP1 antagonism functions at RAR (Nagpal et al, 1995). Recently, compounds that are selective for particular RAR sub-types have been synthesized: these include both agonists and antagonists (Chandraratna, 1995; Teng et al, 1999; Johnson et al, 1999). The functional selectivity of these compounds may open the way to achieving differentiation or apoptosis of tumour cells with minimal systemic side effects (Chandraratna, 1995).”

LNCaP ITS+ cells = experiment: Plate colony formation (clonal proliferation) assay, serum-free (ITS+)-grown LNCaP; type: cell-based, human
Excerpt: as §2

RARβ = target: T1, RARβ (Homo sapiens, UniProt P10826); experiment: Binding to baculovirus-expressed RARβ; set-up: made in house; conditions: baculovirus-expressed receptor
T1 sequence (P10826 1-455): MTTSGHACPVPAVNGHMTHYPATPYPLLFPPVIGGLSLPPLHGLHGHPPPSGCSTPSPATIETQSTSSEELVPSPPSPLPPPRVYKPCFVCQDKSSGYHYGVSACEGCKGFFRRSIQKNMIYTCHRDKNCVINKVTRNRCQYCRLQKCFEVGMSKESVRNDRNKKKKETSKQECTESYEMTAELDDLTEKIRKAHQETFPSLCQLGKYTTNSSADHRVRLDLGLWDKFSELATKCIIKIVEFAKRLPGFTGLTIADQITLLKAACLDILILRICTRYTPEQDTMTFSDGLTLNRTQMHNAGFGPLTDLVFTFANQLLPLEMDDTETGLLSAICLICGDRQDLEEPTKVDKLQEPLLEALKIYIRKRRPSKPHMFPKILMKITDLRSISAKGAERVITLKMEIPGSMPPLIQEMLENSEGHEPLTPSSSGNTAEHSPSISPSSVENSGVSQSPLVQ
Excerpt: as §2

CCc1ccc(C2=CC(C)(C)Sc3ccc(C#Cc4ccc(C(=O)O)cc4)cc32)cc1 [AGN194310]
IC50 (PC3 ITS+ cells): 18 nM
inhibition of colony formation [1]: 11-23%
IC50 (DU145 ITS+ cells): 34 nM
effect on clonal growth of HL60 cells (HL60 cells [2]): did not adversely affect
viability of the single cells (HL60 cells [2]; 0.1 µM): > 95%
number of viable cells at day 4 (HL60 cells [2]; 100 nM, control 18): 17
cloning efficiency (HL60 cells [2]; 100 nM, same as untreated): 90-93%
colony formation (% of control) ([3]; 100 nM, ITS+-grown cells, all three cell lines): 3-7%
fold more potent than ATRA ([3]; against cell lines, serum-free): 12–22 fold
IC50 ([3]; stated over all three serum-free grown lines, read-out: concentration inhibiting colony formation by 50% (IC50)): 16 to 34 nM
percentage of mature cells (HL60 cells [4]): 5%
Kd (RARs): 2 to 5 nM
growth inhibitory effect in combination with TTNPB (LNCaP ITS+ cells; 50 nM AGN194310 together with 100 nM TTNPB): almost complete reversal
colony formation (% of control values) (LNCaP ITS+ cells; 50 nM alone (Figure 3)): 41%
colony formation (% of control values) (LNCaP ITS+ cells; 100 nM AGN194310 together with 100 nM TTNPB): 40%
colony formation (% of control values) (LNCaP ITS+ cells; 100 nM alone (Figure 3)): 14%
colony formation (% of control) (LNCaP ITS+ cells; 100 nM, ITS+ cells plated in ITS+ medium (Figure 5A)): < 1%
growth inhibitory activity in LNCaP-conditioned medium (LNCaP ITS+ cells; 100 nM, LNCaP ITS+ cells plated in LNCaP-conditioned medium): abrogated
inhibition of colony formation (LNCaP ITS+ cells; 100 nM, with EGF at 1, 10 and 20 ng/ml): > 95%
IC50 (LNCaP ITS+ cells; LNCaP, serum-free (ITS+), 14 days): 16 nM
concentration required to attain maximum growth inhibition (LNCaP ITS+ cells; colony assay): 100 nM
Kd (RARβ): 2 nM

Source: publication PMC2364081, “Antagonists of retinoic acid receptors (RARs) are potent growth inhibitors of prostate carcinoma cells” (British Journal of Cancer, 2001)
